Laboratory results as given in article PMC8921294, “Inhibition of mitochondrial LonP1 protease by allosteric blockade of ATP binding and hydrolysis via CDDO and its derivatives” (The Journal of Biological Chemistry, 2022).

Target: T1, LonP1^R721G (Homo sapiens, UniProt P36776, R721G)
T1 construct: hexa-histidine (N); made in house; host or cells: Rosetta 2 E. coli
T1 sequence (P36776 68-959 R721G): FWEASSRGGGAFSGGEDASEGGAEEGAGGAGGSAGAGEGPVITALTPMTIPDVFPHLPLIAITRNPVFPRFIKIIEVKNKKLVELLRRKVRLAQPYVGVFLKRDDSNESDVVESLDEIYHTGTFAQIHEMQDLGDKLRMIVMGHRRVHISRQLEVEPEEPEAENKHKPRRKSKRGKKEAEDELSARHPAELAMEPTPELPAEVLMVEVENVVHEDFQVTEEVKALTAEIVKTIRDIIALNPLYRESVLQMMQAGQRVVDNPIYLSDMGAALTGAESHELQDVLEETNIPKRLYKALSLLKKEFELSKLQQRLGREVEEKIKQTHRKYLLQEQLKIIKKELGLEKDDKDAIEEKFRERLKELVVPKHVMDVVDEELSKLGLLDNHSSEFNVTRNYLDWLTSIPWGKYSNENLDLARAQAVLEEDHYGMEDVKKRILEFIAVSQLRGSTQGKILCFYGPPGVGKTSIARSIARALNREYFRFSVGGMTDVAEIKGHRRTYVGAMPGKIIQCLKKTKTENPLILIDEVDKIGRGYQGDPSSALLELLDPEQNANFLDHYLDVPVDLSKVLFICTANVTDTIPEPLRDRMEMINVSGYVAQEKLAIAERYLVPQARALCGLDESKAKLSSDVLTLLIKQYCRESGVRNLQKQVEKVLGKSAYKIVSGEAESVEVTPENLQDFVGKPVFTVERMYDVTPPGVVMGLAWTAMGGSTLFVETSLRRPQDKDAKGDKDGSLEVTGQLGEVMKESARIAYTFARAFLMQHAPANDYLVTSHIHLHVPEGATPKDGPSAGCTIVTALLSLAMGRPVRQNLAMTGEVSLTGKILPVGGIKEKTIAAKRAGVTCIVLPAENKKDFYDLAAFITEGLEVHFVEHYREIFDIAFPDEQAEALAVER
Assay: NADH-coupled ATPase assay, CODAS mutant LonP1^R721G
Type: biochemical
Conditions: compound 20 μM
Protocol: Figure 2 The ATPase activity of wild-type LonP1^WTis blocked by CDDO-Me and CDDO-anhydride by noncompetitive and competitive inhibition, respectively, whereas the CODAS mutant LonP1^R721GATPase is resistant to inhibition. ATPase activities were measured using an NADH-coupled ATPase assay. Wild type and mutant LonP1 proteins (400 nM) were pre-incubated with or without compound for 30 min at room temperature. A and E, LonP1^WT, and (H and I) comparison of LonP1^WT and LonP1^R721G. ATP was titrated and its hydrolysis was measured over 5 min (mean ± S.D., N ≥ 2). B and F, double-reciprocal Lineweaver–Burk plots (mean ± S.D., N ≥ 2). C and G, determination of Ki (mean ± S.D., N ≥ 2). D, determination of αKi (mean ± S.D., N ≥ 2). C, G and H. mean values obtained from linear regression data. CDDO, 2-cyano-3,12-dioxooleana-1,9(11)-dien-28-oic acid.
ATPase reactions (200 μl total) were performed in 96-well plates at room temperature. LonP1 (400 nM monomer) was preincubated with DMSO (1–2%) vehicle control or CDDO derivatives in buffer (50 mM HEPES-KOH pH 7.5, 5 mM magnesium acetate, 75 mM potassium acetate) for 30 to 45 min at room temperature or 30 °C. […] The change in NADH absorbance at 340 nm was monitored in Spectramax plate reader for 5 min to obtain reaction velocities. […]

Row | Structure (SMILES) | Inhibition of LonP1^R721G ATPase compared with LonP1^WT
1 | CC1(C)CC[C@]2(C(=O)OC(=O)[C@]34CCC(C)(C)C[C@H]3[C@H]3C(=O)C=C5[C@@]6(C)C=C(C#N)C(=O)C(C)(C)[C@@H]6CC[C@@]5(C)[C@]3(C)CC4)CC[C@]3(C)[C@H](C(=O)C=C4[C@@]5(C)C=C(C#N)C(=O)C(C)(C)[C@@H]5CC[C@]43C)[C@@H]2C1 [CDDO-anhydride] | showed resistance
2 | COC(=O)[C@]12CCC(C)(C)C[C@H]1[C@H]1C(=O)C=C3[C@@]4(C)C=C(C#N)C(=O)C(C)(C)[C@@H]4CC[C@@]3(C)[C@]1(C)CC2 [CDDO-Me] | showed resistance
